Laboratory results as given in PubChem BioAssay (NCI).
“And” between values parts separate entries of the source, which are not always exact repeats. Equal entries are not always repeated.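 Growth conditions: 96-well plates. Treatment: test compound, 48 hours, 5 concentrations. Analysis: linear interpolation between bracketing concentrations; unreached endpoints set to highest concentration. GI50 = concentration required for 50% inhibition of growth. TGI denotes the concentration required for complete inhibition of growth.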

Assays:
Test in all cases: growth of human tumour cells (NCI), 48 h
A549 NSCLC = tested on: A549 NSCLC
EKVX NSCLC = tested on: EKVX NSCLC
NCI-H522 lung = tested on: NCI-H522 lung
OVCAR-8 ovarian = tested on: OVCAR-8 ovarian
RXF 393 renal = tested on: RXF 393 renal
SF-539 CNS = tested on: SF-539 CNS
SK-MEL-28 melanoma = tested on: SK-MEL-28 melanoma
SK-MEL-5 melanoma = tested on: SK-MEL-5 melanoma
SR leukemia = tested on: SR leukemia
T-47D breast = tested on: T-47D breast

Compound | TGI (A549 NSCLC) | TGI (EKVX NSCLC) | TGI (NCI-H522 lung) | TGI (OVCAR-8 ovarian) | TGI (RXF 393 renal) | TGI (SF-539 CNS) | TGI (SK-MEL-28 melanoma) | TGI (SK-MEL-5 melanoma) | TGI (SR leukemia) | TGI (T-47D breast) | GI50 (T-47D breast) | GI50 (A549 NSCLC) | GI50 (EKVX NSCLC) | GI50 (NCI-H522 lung) | GI50 (OVCAR-8 ovarian) | GI50 (RXF 393 renal) | GI50 (SF-539 CNS) | GI50 (SK-MEL-28 melanoma) | GI50 (SK-MEL-5 melanoma) | GI50 (SR leukemia)
O=c1ccs[nH]1 | 41.4 µM | 27.2 µM | 1.75 µM | 32.9 µM | 21 µM | 18.3 µM | 67.5 µM | 46.5 µM | 16.4 µM | 55.5 µM |  |  |  |  |  |  |  |  |  | 
CCOC(=O)NC1C2CC(=O)OC(O2)C1OC(C)=O (configuration not stated) | > 100 µM | > 100 µM | > 100 µM | > 100 µM | > 100 µM | > 100 µM | > 100 µM | > 100 µM | > 100 µM | > 100 µM | > 100 µM |  |  |  |  |  |  |  |  | 
C[C@]12CC[C@@H]3c4cc(-c5ccc(F)cc5)c(O)cc4CC[C@H]3[C@@H]1CC[C@@H]2O | 22.9 µM | 20.3 µM | 16.7 µM | 37.3 µM | 5.9 µM | 22.9 µM | 28 µM | 21.2 µM | 24.5 µM | 24.6 µM | 4.52 µM | 6.17 µM | 6.32 µM | 3.79 µM | 8.02 µM | 2.66 µM | 9.42 µM | 14.2 µM | 9.41 µM | 4.75 µM
N#Cc1ccc2c(c1)C(=O)c1c-2n(CCCCl)c(=O)c2cc([N+](=O)[O-])ccc12 |  | > 100 µM | 24.3 µM | > 100 µM | 37.7 µM | 10.5 µM | > 100 µM | 71.5 µM | 1.7 µM | > 100 µM | 2.65 µM |  | 50.4 µM | 3.07 µM | 20.6 µM | 11.9 µM | 2.62 µM | 41.1 µM | 5.07 µM | 0.178 µM
NC1CCC(Nc2nc(NCc3ccc(-c4ccccc4O)nc3)c3ncn(C4CCCC4)c3n2)CC1 (configuration not stated) | 1.18 µM | 0.474 µM | 0.01 µM |  | 0.0356 µM | 0.267 µM | 0.0713 µM | 1.17 µM | 1.35 µM | 0.0791 µM | 0.0252 µM | < 0.01 µM | 0.0291 µM | < 0.01 µM |  | 0.0144 µM | 0.0625 µM | 0.0211 µM | 0.0313 µM | 0.0354 µM
C[C@]12CC[C@H](OC3OC(CO)C(O)C(O)C3O)C[C@H]1CC[C@@H]1[C@@H]2CC[C@]2(C)[C@@H](C3=CCOC3=O)CC[C@]12O (some centres not stated) | 50 µM and > 100 µM | 29.3 µM and > 100 µM | 50 µM and > 100 µM |  | 37 µM and > 100 µM | 7.96 µM and 1.6 µM | 50 µM and > 100 µM | 45.7 µM and > 100 µM | > 100 µM | > 100 µM | 4.89 µM | > 100 µM and 84.5 µM | > 100 µM | 74.9 µM and 10.1 µM |  | > 100 µM and 89.2 µM | 0.198 µM | > 100 µM | > 100 µM | 
O=C(O)CCCSc1ccccc1 | > 100 µM | > 100 µM | > 100 µM | > 100 µM | > 100 µM | > 100 µM | > 100 µM | > 100 µM | > 100 µM | > 100 µM |  |  |  |  |  |  |  |  |  | 
COc1ccc(-c2cc(-c3ccc(Cl)cc3)nc(SCCCC(=O)NO)n2)cc1 | 7.95 µM | 8.76 µM | 3.26 µM | > 100 µM | 1.52 µM | 3.78 µM | 5.47 µM | 3.31 µM |  | 7.46 µM | 0.801 µM | 1.57 µM | 1.21 µM | 0.704 µM | 0.427 µM | 0.359 µM | 1.36 µM | 1.69 µM | 1.59 µM | 0.358 µM
COc1ccc(-c2oc(=O)ccc2-c2cc(OC)c(OC)c(OC)c2)cc1O | > 100 µM | > 100 µM | 3.45 µM | > 100 µM | 3.76 µM | > 29.9 µM | > 100 µM | 12.7 µM | > 23.8 µM | > 100 µM | 0.553 µM | 3.41 µM | 6.98 µM | 0.425 µM | 4.34 µM | 0.795 µM | 1.37 µM | 8.85 µM | 0.514 µM | 0.267 µM
O=S(=O)(NCCCNc1nccc(-c2c(-c3ccc(F)c(O)c3)nc3sccn23)n1)c1ccc(F)cc1 | 47.1 µM | 14.9 µM | 6.04 µM | > 100 µM | 4.68 µM | 17.4 µM | > 100 µM | 2.8 µM | > 100 µM | 6.21 µM | 2.24 µM | 3.02 µM | 3.1 µM | 1.93 µM | 2.3 µM | 1.53 µM | 3.5 µM | 0.104 µM | 1.42 µM | 2.13 µM
c1ccc2c(NCCCCCCNc3c4ccccc4nc4ccccc34)c3ccccc3nc2c1 | 2.89 µM | 5.69 µM | 1.66 µM | 3.18 µM | 1.56 µM | 0.835 µM |  | 2.86 µM | 0.991 µM | 12.5 µM |  |  |  |  |  |  |  |  |  | 
CCOP(=O)(OCC)/C(=C/NC(=S)c1ccncc1)C(=O)OC | > 100 µM | > 100 µM | > 100 µM | > 100 µM | > 100 µM | > 100 µM |  | > 100 µM | > 100 µM | > 100 µM |  |  |  |  |  |  |  |  |  | 
COc1ccc(NC([Se])=NC23CC4CC(CC(C4)C2)C3)cc1 | 7.78 µM | 4.74 µM | 4.35 µM | 3.71 µM | 4.72 µM | 4.19 µM |  | 1.79 µM | > 100 µM | 4.89 µM | 1.88 µM | 2.38 µM | 1.97 µM | 1.23 µM | 0.645 µM | 1.8 µM | 1.89 µM |  | 0.558 µM | 1.67 µM
C=C1C(=O)OC2C1CCC(C)C1C=CC(=O)C12C (configuration not stated) | 41.9 µM | 25.2 µM | 2.39 µM |  | 4.39 µM | 8.33 µM | 4.93 µM | 12 µM | 9.73 µM | 4.88 µM |  |  |  |  |  |  |  |  |  | 
CC(=C/C=C/C=C(C)\C=C\C=C(\C)C(=O)O)/C=C/C=C(/C)C(=O)O | > 100 µM |  | > 100 µM | > 100 µM | > 100 µM | > 100 µM | > 100 µM | > 100 µM | > 100 µM | > 100 µM |  |  |  |  |  |  |  |  |  | 
